Experimental data taken from the NIST ThermoML archive (doi:10.1016/j.tca.2018.05.016).
Numbers after ± are expanded uncertainties.

Experiments:
[1] = Crystal; DSC
[2] = Molar enthalpy of transition or fusion; details: Crystal; DSC

## O=[N+]([O-])[O-].c1cc[nH+]cc1 [pyridinium nitrate]
[1]
  Triple point temperature: 390 ± 5 K
[2]
  Molar enthalpy of transition or fusion: 17.3 ± 0.62 kJ/mol
